# Values of other authors in patent US20050121026A1, “Method for administration of tiotropium” (priority 2003, published 2005).
# Conditions: bronchodilator, background statement
compound,measurement,value
C[N+]1(C)[C@@H]2C[C@@H](OC(=O)C(O)(c3cccs3)c3cccs3)C[C@H]1[C@@H]1O[C@@H]12 [tiotropium bromide],Duration of action (may be active for up to),up to 24 hours
